Source: patent US20080267882A1, “Imaging compounds, methods of making imaging compounds, methods of imaging, therapeutic compounds, methods of making therapeutic compounds, and methods of therapy” (Stanford University, priority 2007, published 2008)

Key:
[1] = literature; cited from earlier work
U87MG tumor-bearing mice = assay: in vivo; settings: mouse
Procedure, shortened: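 microPET of U87MG-bearing mice after tail-vein injection of about 3.7 MBq ^18F-labelled RGD tracer under isoflurane; 30-min dynamic scan from 1 min p.i. plus 5-min static scans at 1–3 h. Tumour ROIs on decay-corrected coronal images, OSEM reconstruction without attenuation or scatter correction, converted to %ID/g.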

[2] = mouse, in vivo
Description: A U87MG tumor mouse was intravenously injected with 3.7 MBq of ^18F-FPRGD2. At 1 h after injection, the mouse was sacrificed, the blood, urine, liver, kidneys, and the U87MG tumor were collected and metabolite analysis was carried out as previously reported (J Nucl Med 2006;47: 113-121 and J Nucl Med 2006;47:1172-1180, each of which is incorporated herein by reference for the corresponding discussion). In brief, blood sample was immediately centrifuged for 5 min at 13,200 rpm. Other tissues were homogenized and then centrifuged for 5 min at 13,200 rpm. The supernatant was each passed through a C18 Sep-Pak cartridge. The urine sample was directly diluted with 1 mL of PBS and passed through a C18 Sep-Pak cartridge. The cartridges were each washed with 2 mL of water and eluted with 2 mL of ACN containing 0.1% TFA. The ACN eluent was concentrated and injected onto the analytical HPLC. The eluent was collected with a fraction collector (0.5 min/fraction) and the radioactivity of each fraction was measured with the γ-counter.
The metabolic stability of ^18F-FPTA-RGD2 was evaluated in an athymic nude mouse bearing a U87MG tumor. Sixty min after intravenous injection of 2 MBq of ^18F-FPTA-RGD2, the mouse was sacrificed and relevant organs were harvested. The blood was collected and immediately centrifuged for 5 min at 13,200 rpm. Liver, kidneys and tumor were homogenized and then centrifuged for 5 min at 13,200 rpm. After removal of the supernatants, the pellets were washed with 1 mL PBS. For each sample, supernatants of both centrifugation steps of blood, liver, and kidneys were combined and passed through C18 Sep-Pak cartridges. The urine sample was directly diluted with 1 mL of PBS and passed through a C18 Sep-Pak cartridge. The cartridges were each washed with 2 mL of water and eluted with 2 mL of ACN containing 0.1% TFA. After evaporation of the solvent, the residues were redissolved in 1 mL PBS and were injected onto the analytical HPLC. The eluent was collected with a fraction collector (0.5 min/fraction) and the radioactivity of each fraction was measured with the γ-counter.

[3] = test system: rat myocardial infarction; assay: microPET imaging of rat myocardial infarction; format: in vivo; settings: scan 1 h after injection
Source text: Induction of MI was done as previously described by our laboratory. Adult female Sprague-Dawley rats (weight 150-200 g; Charles River Laboratories, Wilmington, Mass.) were used for this study. […] The anesthesia was then maintained with isoflurane (2%). MI was induced by ligation of the left anterior descending coronary artery 2 to 3 mm from the tip of the left auricle with a 7-0 polypropylene suture. […] In the sham operated animals, a suture was placed in the myocardium (without ligating the left coronary artery). Animals were anesthetized with isofluorane (2%) and injected with approximately 1 mCi (37 MBq) of ^64Cu-DOTA-[…]2) via the tail vein and allowed to recover. […] At the time of scanning, animals were anesthesized with isofluorane (2%) and prone positioned on the microPET Concorde R4 rodent model scanning gantry (Siemens A G, Malvern, Pa.). The scanner has a computer-controlled bed and 10.8-cm transaxial and 8-cm axial fields of view (FOV). […] It has no septa and operates exclusively in the 3-dimensional list mode. A 15 minute static acquisition was performed with the mid thorax in the center of the field of view (FOV), and images reconstructed using a filtered back projection algorithm.

stroke rats (dMCAO) = assay: microPET imaging of dMCAO stroke rats; format: in vivo, rat
Source text: Anesthesia for Sprague-Dawley rats (290-350 g) was induced by 5% isoflurane and maintained by 2-3% isoflurane. A ventral midline incision was made and the two CCAs were isolated. Snares were placed around the CCAs and the animal was placed on its right side. A 2 cm vertical scalp incision was made midway between the left eye and ear. The temporalis muscle was bisected and a 2 mm burr hole was made at the junction of the zygomatic arch and squamous bone. The distal MCA was exposed and ligated above the rhinal fissure with a 10-0 suture. The CCA snares were tightened to occlude the CCAs for 2 h. In the permanent MCA occlusion model, both CCAs were then released, while the distal MCA remained occluded.

## O=C([O-])CN1CCN(CC(=O)[O-])CCN(CC(=O)[O-])CC1.[Ga+3] [Ga-NOTA]
[1]
  log stability constant: 30.98

## ^18F-FB-mini-PEG-E[c(RGDyK)]2 [^18F-FPRGD2]
U87MG tumor-bearing mice
  residence time for kidneys: 0.016 h
[2]
  defluoridation: No defluoridation was observed
  extraction efficiency (radioactivity in the supernatant): 75-95%
  non-retained fraction (activity not trapped on C18 cartridges): less than 30%
[3]
  myocardial tracer uptake after MI induction: significant increase in uptake
Stroke rats (dMCAO); day 1 after dMCAO
  microPET signal in wound and stroke lesion: Both wound and the lesion were detectable at day 1
Stroke rats (dMCAO); day 9 after dMCAO
  microPET signal in wound and stroke lesion: the signal in the lesion reflecting angiogenesis is remained
